Structures are written as SMILES. Counter-ions that a name gives are not always drawn.

The test deals with T1, WT/R232 STING protein (Homo sapiens, UniProt Q86WV6, H232R).
T1 construct: host or cells: HEK293T
The experiment in a line: Luciferase reporter assay in HEK293T-hSTING-Luciferase cells, WT/R232. The test is classed as cell-based. Conditions: 20 hr stimulation, read-out: R232 Activity (EC50 range). The procedure, abridged:
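[…], read by luminescence from supernatant after 20 h compound stimulation. Cells: clonally selected HEK293T (5×10^5/well) stably carrying WT/R232 human STING and a luciferase reporter under five tandem ISREs fused to an ISG54 minimal promoter.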
(In general: A reporter such as luciferase makes a cellular process visible.)

T1 sequence (Q86WV6 whole entry H232R): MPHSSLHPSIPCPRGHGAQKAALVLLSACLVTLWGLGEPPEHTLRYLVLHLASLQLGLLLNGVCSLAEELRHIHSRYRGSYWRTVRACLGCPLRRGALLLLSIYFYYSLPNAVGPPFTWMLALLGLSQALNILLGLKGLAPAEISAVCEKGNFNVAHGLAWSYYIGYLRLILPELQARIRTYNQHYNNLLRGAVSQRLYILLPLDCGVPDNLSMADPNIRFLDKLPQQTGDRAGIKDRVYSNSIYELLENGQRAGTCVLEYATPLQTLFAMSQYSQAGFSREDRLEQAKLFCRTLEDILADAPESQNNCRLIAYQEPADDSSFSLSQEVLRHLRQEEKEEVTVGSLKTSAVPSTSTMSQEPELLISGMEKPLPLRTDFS

For the molecule `NCc1cc(C(=O)NCc2c(F)cc(F)cc2F)cc2c1SCC(=O)N2Cc1ccc(F)cc1` [Example 224, 8-(aminomethyl)-4-(4-fluorobenzyl)-3-oxo-N-(2,4,6-trifluorobenzyl)-3,4-dihydro-2H-benzo[b][1,4] thiazine-6-carboxamide hydrochloride], the EC50 was > 10 µM.

Consider `NC(=O)c1cc(C(=O)NCc2c(F)cc(F)cc2F)cc2c1SCC(=O)N2Cc1ccc(F)cc1` [Example 225, 4-(4-fluorobenzyl)-3-oxo-N6-(2,4,6-trifluorobenzyl)-3,4-dihydro-2H-benzo[b][1,4] thiazine-6,8-dicarboxamide], for which the half-maximal effective concentration (EC50) is > 10 µM.

Regarding `Cc1cc(C(=O)NCc2ccco2)cc2c1SCC(=O)N2Cc1ccccc1F` [Example 226, 4-(2-Fluorobenzyl)-N-(furan-2-ylmethyl)-8-methyl-3-oxo-3,4-dihydro-2H-benzo[b-1,4]thiazine-6-carboxamide], the 50% effective concentration (EC50) is > 10 µM.

In the case of `O=C(NCc1ccco1)c1cc(C2CC2)c2c(c1)N(Cc1ccccc1F)C(=O)CS2` [Example 227], the concentration for a half-maximal effect (EC50) is > 10 µM.

In the case of `O=C(NCc1ccco1)c1cc2c(cc1Br)SCC(=O)N2Cc1ccccc1F` [Example 228, 7-bromo-4-(2-fluorobenzyl)-N-(furan-2-ylmethyl)-3-oxo-3,4-dihydro-2H-benzo[b][1,4]thiazine-6-carboxamide], the EC50 is > 10 µM.

Regarding `O=C(NCc1ccco1)c1cc2c(cc1C1CC1)SCC(=O)N2Cc1ccccc1F` [Example 229, 7-cyclopropyl-4-(2-fluorobenzyl)-N-(furan-2-ylmethyl)-3-oxo-3,4-dihydro-2H-benzo[b-1,4]thiazine-6-carboxamide], the EC50 was > 10 µM.

For the molecule `Cc1cc2c(cc1C(=O)NCc1ccco1)N(Cc1ccccc1)C(=O)CS2` [Example 230, 4-Benzyl-N-(furan-2-ylmethyl)-7-methyl-3-oxo-3,4-dihydro-2H-benzo[b-1,4]thiazine-6-carboxamide], the half-maximal effective concentration (EC50) was > 10 µM.

Take `O=C(NCc1ccco1)c1ccc2c(c1)N(Cc1c(F)cccc1Cl)C(=O)CO2` [Example 231, 4-(2-Chloro-6-fluorobenzyl)-N-(furan-2-ylmethyl)-3-oxo-3,4-dihydro-2H-benzo[b-1,4]oxazine-6-carboxamide]: the 50% effective concentration (EC50) was > 10 µM.

As to `O=C(NCc1c(F)cc(F)cc1F)c1cnc2c(c1)N(Cc1cc(F)cc(F)c1)C(=O)CO2` [Example 236, 1-(3,5-difluorobenzyl)-2-oxo-N-(2,4,6-trifluorobenzyl)-2,3-dihydro-1H-pyrido[2,3-b-1,4]oxazine-7-carboxamide], the concentration giving a half-maximal response (EC50) was > 10 µM.

For the molecule `C[C@@H]1Oc2ncc(C(=O)NCc3c(F)cc(F)cc3F)cc2N(Cc2cc(F)cc(F)c2)C1=O` [Example 237, (S)-1-(3,5-difluorobenzyl)-3-methyl-2-oxo-N-(2,4,6-trifluorobenzyl)-2,3-dihydro-1H-pyrido[2,3-b-1,4]oxazine-7-carboxamide], the EC50 fell in the range of 1 to 10 µM.

For `C[C@H]1Oc2ncc(C(=O)NCc3c(F)cc(F)cc3F)cc2N(Cc2cc(F)cc(F)c2)C1=O` [Example 238, (R)-1-(3,5-difluorobenzyl)-3-methyl-2-oxo-N-(2,4,6-trifluorobenzyl)-2,3-dihydro-1H-pyrido[2,3-b-1,4]oxazine-7-carboxamide], the EC50 is 1 to 10 µM.

`O=C(NCc1c(F)cc(F)cc1F)c1cnc2c(c1)N(Cc1c(F)cccc1Cl)C(=O)CO2` [Example 239, 1-(2-chloro-6-fluorobenzyl)-2-oxo-N-(2,4,6-trifluorobenzyl)-2,3-dihydro-1H-pyrido[2,3-b-1,4]oxazine-7-carboxamide]: the EC50 was > 10 µM.

For `CC1Oc2ncc(C(=O)NCc3c(F)cc(F)cc3F)cc2N(Cc2cc(F)cc(F)c2)C1=O` (stereo not shown) [Example 240, 1-(3,5-difluorobenzyl)-3-methyl-2-oxo-N-(2,4,6-trifluorobenzyl)-2,3-dihydro-1H-pyrido[2,3-b-1,4]oxazine-7-carboxamide], the EC50 was 1 to 10 µM.

With `C[C@@H]1Oc2ncc(C(=O)NCc3cc4ccccc4o3)cc2N(Cc2cc(F)cc(F)c2)C1=O` [Example 241, (S)-N-(benzofuran-2-ylmethyl)-1-(3,5-difluorobenzyl)-3-methyl-2-oxo-2,3-dihydro-1H-pyrido[2,3-b][1,4]oxazine-7-carboxamide], the concentration giving a half-maximal response (EC50) lay in the range of 1 to 10 µM.

For the molecule `CC1Oc2ncc(C(=O)NCc3cccc(C(F)(F)F)c3)cc2N(Cc2c(F)cccc2Cl)C1=O` (stereo not shown) [Example 244, 1-(2-chloro-6-fluorobenzyl)-3-methyl-2-oxo-N-(3-(trifluoromethyl)benzyl)-2,3-dihydro-1H-pyrido[2,3-b][1,4]oxazine-7-carboxamide], the EC50 is > 10 µM.

Turning to `O=C(NCc1ccco1)c1ccc2c(c1)N(Cc1c(F)cccc1Cl)C(=O)C[S+]2[O-]` (stereo not shown) [Example 245, 4-(2-chloro-6-fluorobenzyl)-N-(furan-2-ylmethyl)-3-oxo-3,4-dihydro-2H-benzo[b][1,4]thiazine-6-carboxamide 1-oxide], the EC50 is > 10 µM.

In the case of `O=C(NCc1ccco1)c1ccc2c(c1)N(Cc1ccccc1)CCS2` [Example 246, 4-Benzyl-N-(furan-2-ylmethyl)-3,4-dihydro-2H-benzo[b-1,4]thiazine-6-carboxamide], the EC50 is > 10 µM.

For `O=C(NCc1ccco1)c1ccc2c(c1)N(Cc1ccccc1F)CCS2` [Example 247, 4-(2-fluorobenzyl)-N-(furan-2-ylmethyl)-3,4-dihydro-2H-benzo[b-1,4]thiazine-6-carboxamide], the 50% effective concentration (EC50) was > 10 µM.

On to `O=C(NCc1ccco1)c1ccc2c(c1)N(CC(O)c1ccccc1)CCS2` (stereo not shown) [Example 248, N-(furan-2-ylmethyl)-4-(2-hydroxy-2-phenylethyl)-3,4-dihydro-2H-benzo[b-1,4]thiazine-6-carboxamide], for which the EC50 was > 10 µM.

Take `O=C(CN1CCSc2ccc(C(=O)NCc3ccco3)cc21)c1ccccc1` [Example 249, N-(furan-2-ylmethyl)-4-(2-oxo-2-phenylethyl)-3,4-dihydro-2H-benzo[b][1,4]thiazine-6-carboxamide]: the EC50 is > 10 µM.

`O=C(NCc1ccco1)c1ccc2c(c1)N(Cc1ccc(Cl)cc1)CCS2` [Example 250, 4-(4-Chlorobenzyl)-N-(furan-2-ylmethyl)-3,4-dihydro-2H-benzo[b-1,4]thiazine-6-carboxamide]: the concentration giving a half-maximal response (EC50) is > 10 µM.

Consider `O=C(NCc1ccco1)c1ccc2c(c1)N(Cc1ccccc1)CC[S+]2[O-]` (stereo not shown) [Example 251, 4-Benzyl-N-(furan-2-ylmethyl)-3,4-dihydro-2H-benzo[b-1,4]thiazine-6-carboxamide 1-oxide], for which the EC50 was > 10 µM.

As to `O=C(NCc1ccco1)c1ccc2c(c1)N(Cc1ccccc1)CCS2(=O)=O` [Example 252, 4-Benzyl-N-(furan-2-ylmethyl)-3,4-dihydro-2H-benzo[b-1,4]thiazine-6-carboxamide 1,1-dioxide], the EC50 was > 10 µM.

Regarding `O=C(NCc1ccco1)c1ccc2c(c1)N(C(=O)c1ccccc1F)CCS2` [Example 253, 4-(2-Fluorobenzoyl)-N-(furan-2-ylmethyl)-3,4-dihydro-2H-benzo[b-1,4]thiazine-6-carboxamide], the 50% effective concentration (EC50) was > 10 µM.

As to `O=C(NCc1ccco1)c1ccc2c(c1)N(C(=O)c1ccccc1F)CCS2(=O)=O` [Example 254, 4-(2-Fluorobenzoyl)-N-(furan-2-ylmethyl)-3,4-dihydro-2H-benzo[b-1,4]thiazine-6-carboxamide 1,1-dioxide], the EC50 was > 10 µM.

Turning to `O=C(NCc1ccco1)c1ccc2c(c1)N(C(=O)c1ccccc1)CCS2` [Example 255, 4-benzoyl-N-(furan-2-ylmethyl)-3,4-dihydro-2H-benzo[b][1,4]thiazine-6-carboxamide], the EC50 is > 10 µM.

Regarding `O=C(NCc1ccco1)c1ccc2c(c1)N(C(=O)c1c(F)cccc1Cl)CCS2` [Example 256, 4-(2-chloro-6-fluorobenzoyl)-N-(furan-2-ylmethyl)-3,4-dihydro-2H-benzo[b][1,4]thiazine-6-carboxamide], the EC50 is > 10 µM.

`O=C(NCC1CCCCC1)c1ccc2c(c1)N(C(=O)c1c(F)cccc1Cl)CCS2` [Example 257, 4-(2-chloro-6-fluorobenzoyl)-N-(cyclohexylmethyl)-3,4-dihydro-2H-benzo[b][1,4]thiazine-6-carboxamide]: the EC50 was in the range of 1 to 10 µM.

Consider `CC1CN(C(=O)Cc2ccccc2)c2cc(C(=O)NCc3c(F)cc(F)cc3F)ccc2S1` (stereo not shown) [Example 259, 2-methyl-4-(2-phenylacetyl)-N-(2,4,6-trifluorobenzyl)-3,4-dihydro-2H-benzo[b][1,4]thiazine-6-carboxamide], for which the EC50 was > 10 µM.

Consider `O=C(NCc1c(F)cc(F)cc1F)c1ccc2c(c1)N(C(=O)c1ccncc1)CCS2` [Example 260, 4-isonicotinoyl-N-(2,4,6-trifluorobenzyl)-3,4-dihydro-2H-benzo[b][1,4]thiazine-6-carboxamide], for which the 50% effective concentration (EC50) is > 10 µM.

On to `O=C(NCc1c(F)cc(F)cc1F)c1ccc2c(c1)N(S(=O)(=O)c1ccccc1)CCS2` [Example 261, 4-(Phenylsulfonyl)-N-(2,4,6-trifluorobenzyl)-3,4-dihydro-2H-benzo[b-1,4]thiazine-6-carboxamide], for which the half-maximal effective concentration (EC50) is 1 to 10 µM.

For `O=C(NCc1c(F)cc(F)cc1F)c1ccc2c(c1)N(S(=O)(=O)c1cc(F)cc(F)c1)CCS2` [Example 262, 4-((1,5-Difluorophenyl)sulfonyl)-N-(2,4,6-trifluorobenzyl)-3,4-dihydro-2H-benzo[b-1,4]thiazine-6-carboxamide], the concentration giving a half-maximal response (EC50) was > 10 µM.

Regarding `O=C(NCc1ccco1)c1ccc2c(c1)N(C(=O)c1ccccc1F)CCO2` [Example 263, 4-(2-fluorobenzoyl)-N-(furan-2-ylmethyl)-3,4-dihydro-2H-benzo[b-1,4]oxazine-6-carboxamide], the EC50 was > 10 µM.

On to `O=C(NCc1c(F)cc(F)cc1F)c1ccc2c(c1)N(C(=O)c1c(F)cccc1Cl)CCO2` [Example 264, 4-(2-chloro-6-fluorobenzoyl)-N-(2,4,6-trifluorobenzyl)-3,4-dihydro-2H-benzo[b-1,4]oxazine-6-carboxamide], for which the EC50 is > 10 µM.

For orientation: EC50 means the concentration giving half of the maximal effect.

(Values after patent US20200138827A1, “SMALL MOLECULE MODULATORS OF HUMAN STING” (Curadev Pharma Limited, priority 2017, published 2020).)
